Reference: ChEMBL document CHEMBL6092194, “Development of membrane-targeting chalcone derivatives as antibacterial agents against multidrug-resistant bacteria” (Eur J Med Chem, 2024)
≈ marks a conversion by molar mass, not a printed value. Calls of active or inactive are those of the source. The calls are words filed in the database; no cut-off is given here.

Assays:
[1] = test system: Staphylococcus aureus; assay: Drug resistance, ratio of MIC for Staphylococcus aureus ATCC43300 measured after 17 passages to MIC for Staphylococcus aureus ATCC43300 measured after first exposure; type: functional
[2] = test system: Staphylococcus aureus; assay: Antibacterial activity against Staphylococcus aureus ATCC43300 infected in sepsis mouse model assessed as reduction in kidney damage at 5 mg/kg pre-infected with bacteria for 1 hrs followed by compound administration at 12 hrs interval for 2 days by H and E staining based analysis; type: functional, organism-based; settings: time 2.0 day
[3] = test system: Staphylococcus aureus; assay: Antibacterial activity against Staphylococcus aureus ATCC43300 infected in sepsis mouse model assessed as reduction in liver inflammation at 5 mg/kg pre-infected with bacteria for 1 hrs followed by compound administration at 12 hrs interval for 2 days by H and E staining based analysis; type: functional, organism-based; settings: time 2.0 day
[4] = test system: Staphylococcus aureus; assay: Antibacterial activity against Staphylococcus aureus ATCC43300 infected in sepsis mouse model assessed as reduction in spleen inflammation at 5 mg/kg pre-infected with bacteria for 1 hrs followed by compound administration at 12 hrs interval for 2 days by H and E staining based analysis; type: functional, organism-based; settings: time 2.0 day
[5] = test system: Bacillus subtilis; assay: Antibacterial activity against penicillin-susceptible Bacillus subtilis ATCC9372 by broth microdilution assay; type: functional
[6] = test system: Staphylococcus aureus; assay: Antibacterial activity against Staphylococcus aureus ATCC43300 infected in sepsis mouse model assessed as reduction in kidney inflammation at 5 mg/kg pre-infected with bacteria for 1 hrs followed by compound administration at 12 hrs interval for 2 days by H and E staining based analysis; type: functional, organism-based; settings: time 2.0 day
[7] = test system: Staphylococcus aureus; assay: Antibacterial activity against Staphylococcus aureus ATCC43300 infected in sepsis mouse model assessed as reduction in liver damage at 5 mg/kg pre-infected with bacteria for 1 hrs followed by compound administration at 12 hrs interval for 2 days by H and E staining based analysis; type: functional, organism-based; settings: time 2.0 day
[8] = test system: Enterococcus faecalis; assay: Antibacterial activity against vancomycin susceptible Enterococcus faecalis ATCC29212 by broth microdilution assay; type: functional
[9] = test system: Escherichia coli; assay: Antibacterial activity against penicillin-susceptible Escherichia coli ATCC25922 by broth microdilution method; type: functional
[10] = test system: Staphylococcus aureus; assay: Antibacterial activity against Staphylococcus aureus ATCC43300 infected in sepsis mouse model assessed as reduction in spleen damage at 5 mg/kg pre-infected with bacteria for 1 hrs followed by compound administration at 12 hrs interval for 2 days by H and E staining based analysis; type: functional, organism-based; settings: time 2.0 day
[11] = test system: Klebsiella pneumoniae; assay: Antibacterial activity against Klebsiella pneumoniae ATCC10031 by broth microdilution assay; type: functional
[12] = test system: Pseudomonas aeruginosa; assay: Antibacterial activity against penicillin-susceptible Pseudomonas aeruginosa ATCC27853 by broth microdilution method; type: functional
[13] = test system: Acinetobacter baumannii; assay: Antibacterial activity against Acinetobacter baumannii ATCC19606 by broth microdilution assay; type: functional

| Compound | Ratio [1] | Activity [2] | Activity [3] | Activity [4] | MIC [5] | Activity [6] | Activity [7] | MIC [8] | MIC [9] | Activity [10] | MIC [11] | MIC [12] | MIC [13] |
| --- | --- | --- | --- | --- | --- | --- | --- | --- | --- | --- | --- | --- | --- |
| CCn1cc(C(=O)O)c(=O)c2cc(F)c(N3CCNCC3)cc21 [NORFLOXACIN] | 256 | – | – | – | – | – | – | – | – | – | – | – | – |
| CN[C@H](CC(C)C)C(=O)N[C@H]1C(=O)N[C@@H](CC(N)=O)C(=O)N[C@H]2C(=O)N[C@H]3C(=O)N[C@H](C(=O)N[C@H](C(=O)O)c4cc(O)cc(O)c4-c4cc3ccc4O)[C@H](O)c3ccc(c(Cl)c3)Oc3cc2cc(c3O[C@@H]2O[C@H](CO)[C@@H](O)[C@H](O)[C@H]2O[C@H]2C[C@](C)(N)[C@H](O)[C@H](C)O2)Oc2ccc(cc2Cl)[C@H]1O [VANCOMYCIN] | – | Active | Active | Active | 0.5 µg/mL (≈ 0.345 µM) | Active | Active | 2 µg/mL (≈ 1.38 µM) | 128 µg/mL (≈ 88.3 µM) | Active | 128 µg/mL (≈ 88.3 µM) | > 128 µg/mL | 16 µg/mL (≈ 11 µM) |
